Here are results for 9 molecules from EP4703362A1 (Chengdu Sibeibo Pharmaceutical Technology Co., Ltd, priority 2023, dated 2024).

This experiment has as its target T1, CGRP receptor complex (Homo sapiens, UniProt O60894+Q16602).
T1 construct: host or cells: SK-N-MC
Put plainly: determination of cell functional antagonism - cAMP determination. The format is cell-based. As to the method: 1.Experimental principle A CGRP receptor complex was coupled with Gs in G protein, the combination of CGRP and CGRP receptor complex led to Gs activation, and cAMP (3',5'-cyclic adenosine monophosphate) was produced. 2.Experimental purpose The ability of the compound of the present invention to inhibit CGRP-stimulated cAMP formation in SK-N-MC cells was determined. 3.Experimental materials 3.1Experimental cell line: SK-N-MC (neuroepithelioma cells) from National Science and Technology Infrastructure - Biomedical Materials and Cell Resources. 3.2Reagents and consumables
4.Experimental steps • 4.1Cell preparation: The SK-N-MC cells were resuscitated and cultured in advance, and a cell confluence degree should be 70%-80% before use. • 4.2A sample dilution, a tested compound and α-CGRP (human) were prepared. • 4.3Cell seeding and drug effect: The SK-N-MC cells were digested, centrifuged, then resuspended with the sample dilution, and inoculated into a 384-well plate. Each well was added with the α-CGRP (human) and the tested compound respectively, and blown and mixed evenly. The well plate was adhered with a sealing film, and placed on an enzyme-labeled incubator to incubate at 25°C. • 4.4cAMP determination: carried out according to LANCE Ultra cAMP Kit specification Eu-cAMP tracer and ULight-anti-cAMP working solutions were prepared in the dark, respectively added into the well plate, and blown and mixed evenly.

[1] abbreviates: inhibition of CGRP-stimulated cAMP formation in SK-N-MC cells, read-out: IC50.
Where [2] appears, read: inhibition of CGRP-stimulated cAMP formation in SK-N-MC cells.

Like-named read-outs stand apart in the source and are kept apart here.

Broadly, the IC50 is the point on the concentration scale where inhibition reaches its midpoint.

T1 sequence (Q16602 23-461): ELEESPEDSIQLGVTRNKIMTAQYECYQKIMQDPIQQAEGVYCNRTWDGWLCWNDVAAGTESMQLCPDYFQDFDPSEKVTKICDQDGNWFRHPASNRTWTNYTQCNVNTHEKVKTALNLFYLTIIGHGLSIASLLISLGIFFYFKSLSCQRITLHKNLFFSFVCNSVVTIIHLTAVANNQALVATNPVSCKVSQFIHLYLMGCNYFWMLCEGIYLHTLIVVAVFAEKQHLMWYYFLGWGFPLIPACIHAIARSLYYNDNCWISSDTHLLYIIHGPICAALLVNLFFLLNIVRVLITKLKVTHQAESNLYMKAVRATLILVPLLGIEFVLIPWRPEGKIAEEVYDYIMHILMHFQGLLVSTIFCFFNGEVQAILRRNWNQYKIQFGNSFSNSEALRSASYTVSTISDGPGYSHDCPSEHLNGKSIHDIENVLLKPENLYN
T1 sequence (O60894 27-148): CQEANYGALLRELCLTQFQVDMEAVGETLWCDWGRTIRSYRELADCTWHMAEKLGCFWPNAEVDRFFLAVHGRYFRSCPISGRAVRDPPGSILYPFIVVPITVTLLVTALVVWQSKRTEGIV

With `Cc1cc(C[C@@H](NC(=O)N2CCC(c3cc4c([nH]c3=O)SCC4(C)C)CC2)C(=O)N2CCN(C3CCN(C)CC3)CC2)cc2cn[nH]c12` [Example 2, (R)-4-(3,3-dimethyl-6-oxo-2,3,6,7-tetrahydrothieno[2,3-b]pyridine-5-yl)-N-(3-(7-methyl-1H-indazole-5-yl)-1-(4-(1-methylpiperidine-4-yl)piperazine-1-yl)-1-oxopropan-2-yl)piperidine-1-formamide], under setting [1], the IC50 turned out to be 0.65 nM. For the same molecule, the “IC50 values / inhibitory activities (in words)” value (inhibition of CGRP-stimulated cAMP formation, statement of the conclusion) was “pM level”.
For the molecule `Cc1cc(C[C@@H](NC(=O)N2CCC(c3cc4c([nH]c3=O)CCC4(C)C)CC2)C(=O)N2CCN(C3CCN(C)CC3)CC2)cc2cn[nH]c12` [Example 7], the IC50 turned out to be 6.02 nM.
Turning to `Cc1cc(C[C@@H](NC(=O)N2CCC(c3cc4c([nH]c3=O)CSC4)CC2)C(=O)N2CCN(C3CCN(C)CC3)CC2)cc2cn[nH]c12` [Example 11, (R)-N-(3-(7-methyl-1H-indazole-5-yl)-1-(4-(1-methylpiperidine-4-yl)piperazine-1-yl)-1-oxopropan-2-yl)-4-(2-oxo-1,2,5,7-tetrahydrothieno[3,4-b]pyridine-3-yl)piperidine-1-formamide], the IC50 under setting [1] is 7.83 nM.
As for `Cc1cc(C[C@@H](NC(=O)N2CCC(c3cc4c([nH]c3=O)CSCC4)CC2)C(=O)N2CCN(C3CCN(C)CC3)CC2)cc2cn[nH]c12` [Example 13, (R)-N-(3-(7-methyl-1H-indazole-5-yl)-1-(4-(1-methylpiperidine-4-yl)piperazine-1-yl)-1-oxopropan-2-yl)-4-(2-oxo-2,5,6,8-tetrahydro-1H-thiopyrano[3,4-b]pyridine-3-yl)piperidine-1-for mamide], the IC50 under setting [2] amounted to 1.44 nM.
Regarding `Cc1cc(C[C@@H](NC(=S)N2CCC(c3cc4c([nH]c3=O)SCC4)CC2)C(=O)N2CCN(C3CCN(C)CC3)CC2)cc2cn[nH]c12` [Example 16], the half-inhibitory concentration (IC50) amounted to 0.71 nM.
Regarding `Cc1cc(C[C@@H](NC(=O)N2CCC(c3cc4c([nH]c3=O)CCS4)CC2)C(=O)N2CCN(C3CCN(C)CC3)CC2)cc2cn[nH]c12` [Example 17, (R)-N-(3-(7-methyl-1H-indazole-5-yl)-1-(4-(1-methylpiperidine-4-yl)piperazine-1-yl)-1-oxopropan-2-yl)-4-(5-oxo-2,3,4,5-tetrahydrothieno[3,2-b]pyridine-6-yl)piperidine-1-formamide], the IC50 under setting [1] stood at 15.4 nM.
As for `Cc1cc(C[C@@H](NC(=O)N2CCN(c3cc4c([nH]c3=O)SCCC4)CC2)C(=O)N2CCN(C3CCN(C)CC3)CC2)cc2cn[nH]c12` [Example 18, (R)-N-(3-(7-methyl-1H-indazole-5-yl)-1-(4-(1-methylpiperidine-4-yl)piperazine-1-yl)-1-oxopropan-2-yl)-4-(7-oxo-3,4,7,8-tetrahydro-2H-thiopyrano[2,3-b]pyridine-6-yl)piperazine-1-for mamide], the IC50 under setting [2] was found to be 0.95 nM.
Regarding `Cc1cc(C[C@@H](NC(=O)N2CCC(c3cc4c([nH]c3=O)SCC4)CC2)C(=O)N2CCC(N3CCN(C)CC3)CC2)cc2cn[nH]c12` [Example 19, (R)-N-(3-(7-methyl-1H-indazole-5-yl)-1-(4-(4-methylpiperazine-1-yl)piperidine-1-yl)-1-oxopropan-2-yl)-4-(6-oxo-2,3,6,7-tetrahydrothieno[2,3-b]pyridine-5-yl)piperidine-1-formamide], the IC50 under setting [1] is 0.39 nM.
On the same count and under the same terms, the result for `Cc1cc(C[C@@H](NC(=O)N2CCC(c3cc4c([nH]c3=O)SCC4)CC2)C(=O)N2CCC(N3CCCCC3)CC2)cc2cn[nH]c12` [Example 20, (R)-N-(1-([1,4'-bipiperidine]-1'-yl)-3-(7-methyl-1H-indazole-5-yl)-1-oxopropan-2-yl)-4-(6-oxo-2,3,6,7-tetrahydrothieno[2,3-b]pyridine-5-yl)piperidine-1-formamide] reads 0.37 nM.
